Test system: finishing Nelore cattle in feedlot
Assay: Animal performance trial: Crina Ruminants and Ronozyme Rumistar for finishing Nelore cattle in feedlot
Assay type: in vivo
Procedure: The study has been carried out at facilities of Animal Science Department at ESALQ/USP (University of São Paulo), Piracicaba-SP, Brazil. Treatments have been allocated in fifty pens, with 6 animals per pen. Water has been supplied for ad libitum consumption and feed once a day. Cattle have been withheld from feed and water for 16 hours before body weight (BW) assessment at the beginning and at the end of the experiment. After 28 and 56 days body weight (BW) has been assessed to monitor the partial average daily gain. [table] [table]

For `CC[C@@]1([C@@H]2O[C@@H]([C@H]3O[C@@](O)(CO)[C@H](C)C[C@@H]3C)C[C@@H]2C)CC[C@H]([C@]2(C)CC[C@]3(C[C@H](O)[C@@H](C)[C@@H]([C@@H](C)[C@@H](OC)[C@H](C)C(=O)O)O3)O2)O1` [MONENSIN, Monensin], the “ADG (average daily gain)” value (After 59 days) was 1.342b kg/d, the “DMI (dry matter intake)” value (After 59 days) was 8.63b kg/d and the “FE (feed efficiency), ADG:DMI” value (After 59 days) was 0.155b. The “ADG (average daily gain)” value (adaptation period - 28 days) was 1.352b kg/d, the “DMI (dry matter intake)” value (adaptation period - 28 days) was 7.73b kg/d and the “FE (feed efficiency), ADG:DMI” value (adaptation period - 28 days) was 0.177bc.
